Tests used:
[1] = test system: cytokines induced in mice by LPS; experiment: Mouse LPS cytokine model, Example 6C Study 3, omega fatty acids with or without 0.25 mg/kg 1:1 CBD:CBDA; format: in vivo
Experimental: (§1) A series of experiments using a mouse LPS cytokine animal model were performed. In the mouse LPS cytokine animal model, mice were injected with LPS, which induced the immune response shortly after the mice were injected with one of the potential anti-inflammatory compounds under evaluation (the “test compound”). The efficacy of the test compound was evaluated based on its ability to reduce expression levels of inflammatory cytokines that were elevated due to the immune response. The test compounds included a cannabinoid, an omega fatty acid, and a cannabinoid-omega fatty acid composition.
(§2) The mice were intraperitoneally injected with 0.1 mL of the test compound. One hour later, the mice were intraperitoneally injected with 0.1 mL of LPS in phosphate buffered saline (PBS). Four hours later, a heart puncture was performed and the blood was allowed to clot to generate serum. 0.1 mL of the serum was diluted 1:2 with PBS and stored at −80° C. The serum was then sent to a laboratory where a mouse cytokine array/chemokine array 31-plex (MD31) analysis was performed that analyzed the expression levels of the 32 cytokines/chemokines listed in Table 9, above.
(§3) For each considered test compound, the ability of the test compound to suppress each inflammatory cytokine was calculated by determining the percent suppression.
(§4) In this study, the effects of combining 1:1 CBD:CBDA with anti-inflammatory omega unsaturated fatty acids using the mouse LPS cytokine animal model were examined.
(§5) 40 female C57BL/6 mice that weighed approximately 20 g each were allowed to acclimate for one week with unlimited access to food and water. On the day of the study, the mice were weighed and split into ten groups of four mice each so that the average weight of each group was as close as possible to each other. […] (9) LPS plus 37.50 mg omega fatty acids (0.1 mL injection of 375.00 mg/mL omega fatty acids diluted in MCT oil, followed 1 hour later by a 0.1 mL injection of LPS in PBS); and (10) LPS plus 37.50 mg omega fatty acids/0.005 mg 1:1 CBD:CBDA (0.1 mL injection of 375.00 mg/mL omega fatty acids/0.05 mg/mL 1:1 CBD:CBDA diluted in MCT oil, followed 1 hour later by a 0.1 mL injection of LPS in PBS).
24 out of the 32 analyzed cytokines were induced two-fold by LPS. Because the purpose of this experiment was to evaluate the effectiveness of combining 1:1 CBD:CBDA and the anti-inflammatory omega fatty acids, only cytokines that could be suppressed by one of the anti-inflammatory agents used in this study were considered. 24 out of the 24 cytokines whose expression level was induced-two fold or greater by LPS met these criteria.

[2] = test system: cytokines induced in mice by LPS; experiment: Mouse LPS cytokine model, Example 6C Study 2, omega fatty acids with or without 0.5 mg/kg 1:1 CBD:CBDA; format: in vivo; details: 0.5 mg/kg (0.01 mg per mouse)
Experimental: as §1, §2, §3, §4
as §5, with “acids/0.01” for “acids/0.005”, “acids/0.1” for “acids/0.05”
Because the purpose of this experiment was to evaluate the effectiveness of combining 1:1 CBD:CBDA and the anti-inflammatory omega fatty acids, only cytokines that could be suppressed by one of the anti-inflammatory agents used in this study were considered.

[3] = 0.01 mg dexamethasone in MCT oil

In the case of `C[C@@H]1C[C@H]2[C@@H]3CCC4=CC(=O)C=C[C@]4(C)[C@@]3(F)[C@@H](O)C[C@]2(C)[C@@]1(O)C(=O)CO` [Dexamethasone, dexamethasone], the “Percent suppression of elevated cytokine levels, Eotaxin” value [1, 3] is reported as 7.26%, the “Percent suppression of elevated cytokine levels, IFNγ” value [1, 3] is reported as 44.52% and the “Percent suppression of elevated cytokine levels, IL-1β” value [1, 3] is reported as 35.53%. The “Percent suppression of elevated cytokine levels, IL-2” value [1, 3] was −9.46%, the “Percent suppression of elevated cytokine levels, IL-6” value [1, 3] was 85.95% and the “Percent suppression of elevated cytokine levels, IL-7” value [1, 3] was 96.66%. The “Percent suppression of elevated cytokine levels, IL-10” value [1, 3] was 57.41%, the “Percent suppression of elevated cytokine levels, IL-12β p40” value [1, 3] was 54.79% and the “Percent suppression of elevated cytokine levels, IL-12β p70” value [1, 3] was −51.07%. For the same compound, the “Percent suppression of elevated cytokine levels, IL-13” value [1, 3] was 11.39%, the “Percent suppression of elevated cytokine levels, IL-15” value [1, 3] was −13.42% and the “Percent suppression of elevated cytokine levels, IL-17” value [1, 3] was 63.75%. For the same compound, the “Percent suppression of elevated cytokine levels, IP-10” value [1, 3] was 42.02%, the “Percent suppression of elevated cytokine levels, KC” value [1, 3] was 60.10% and the “Percent suppression of elevated cytokine levels, LIF” value [1, 3] was 47.18%. For the same compound, the “Percent suppression of elevated cytokine levels, MCP-1” value [1, 3] was 57.29%, the “Percent suppression of elevated cytokine levels, MIG” value [1, 3] was −0.29% and the “Percent suppression of elevated cytokine levels, MIP-1α” value [1, 3] was 47.13%. The “Percent suppression of elevated cytokine levels, MIP-1β” value [1, 3] was 34.67%, the “Percent suppression of elevated cytokine levels, MIP-2” value [1, 3] was 37.57% and the “Percent suppression of elevated cytokine levels, RANTES” value [1, 3] was 37.87%. The “Percent suppression of elevated cytokine levels, TNF-α” value [1, 3] was 51.43%, the “Percent suppression of elevated cytokine levels, VEGF” value [1, 3] was 75.98% and the “Percent suppression of elevated cytokine levels, AVERAGE SUPPRESSION” value ([1]; 0.01 mg dexamethasone in MCT oil, average of 24 cytokines) was 37.59%. For the same compound, the “decrease in the cytokine expression levels (average)” value ([1]; 0.01 mg per mouse) was 37.59%, the “AVERAGE SUPPRESSION” value [2] was 46.54% and the IFNγ suppression [2] was 70.28%. For the same compound, the IL-6 suppression [2] was 76.63%, the IL-7 suppression [2] was 31.25% and the IL-10 suppression [2] was 24.07%. For the same compound, the “IL-12β p40 suppression” value [2] was 56.90%, the IL-15 suppression [2] was 42.45% and the IL-17 suppression [2] was 64.04%. It also gave an IP-10 suppression [2] of 44.62%, a KC suppression [2] of 79.04% and an LIF suppression [2] of 51.34%. For the same compound, the MCP-1 suppression [2] was 57.38%, the MIG suppression [2] was 20.57% and the MIP-1α suppression [2] was 59.54%. The MIP-1β suppression [2] was 27.89%, the RANTES suppression [2] was 46.25% and the TNF-α suppression [2] was 61.44%.

— patent publication US12678451B2, “Cannabinoid and omega fatty acid compositions and methods of using” (GreenWay Herbal Products, LLC, priority 2019, dated 2026)
